# Where two headings read alike, the source gives them in different places.
# Experiments:
# [1] = tested on: Human primary melanocytes; experiment: Melanin content assay; assay type: cell-based; details: Melanocyte, 72 h
# Procedure: Human primary melanocytes (Cascade Biologics, now ThermoFisher Scientific) were grown in melanocytes growth medium (MGM) with human melanocyte growth supplement (both media components from ThermoFisher Scientific). Melanocytes were seeded at 5×10^4 cells/well in 24 well-plates and incubated in a humidified incubator at 37° C. with 5% CO2 atmosphere. After 24 hours of incubation, cell cultures were treated with the GAP amino acids or additional test reagents above-described, alone or in combination, as described in examples below. The vehicle control consisted of cells treated with the vehicle (0.002 mM NaOH) alone. After treatment, cells were again incubated for 72 hours in a humidified incubator at 37° C. with 5% CO2 atmosphere. At the end of the 72 hour incubation, the culture medium was replaced with 120 uL/well of melanin content assay reagent (10% DMSO in 1M sodium hydroxide) and incubated for 1 hour at 60° C. in a shaker incubator. The supernatant was then transferred to a 384 well plate. The absorbance was measured by spectrophotometric analysis at 405 nm with a micro plate reader (GEnios Pro, Tecan).
# The spectrophotometric optical density at 405 nm for untreated cells (no active) was considered as 100% melanin content. Relative melanin content for treated samples was calculated with normalization based on the untreated (media/vehide) control.
# tyrosinase = target: T1, tyrosinase (Homo sapiens, UniProt P14679); experiment: Tyrosinase activity assay (in situ, melanocyte lysate); assay type: cell-based; details: Table 1B, 72 h
# T1 construct: host or cells: human primary melanocytes
# T1 sequence (P14679 19-529): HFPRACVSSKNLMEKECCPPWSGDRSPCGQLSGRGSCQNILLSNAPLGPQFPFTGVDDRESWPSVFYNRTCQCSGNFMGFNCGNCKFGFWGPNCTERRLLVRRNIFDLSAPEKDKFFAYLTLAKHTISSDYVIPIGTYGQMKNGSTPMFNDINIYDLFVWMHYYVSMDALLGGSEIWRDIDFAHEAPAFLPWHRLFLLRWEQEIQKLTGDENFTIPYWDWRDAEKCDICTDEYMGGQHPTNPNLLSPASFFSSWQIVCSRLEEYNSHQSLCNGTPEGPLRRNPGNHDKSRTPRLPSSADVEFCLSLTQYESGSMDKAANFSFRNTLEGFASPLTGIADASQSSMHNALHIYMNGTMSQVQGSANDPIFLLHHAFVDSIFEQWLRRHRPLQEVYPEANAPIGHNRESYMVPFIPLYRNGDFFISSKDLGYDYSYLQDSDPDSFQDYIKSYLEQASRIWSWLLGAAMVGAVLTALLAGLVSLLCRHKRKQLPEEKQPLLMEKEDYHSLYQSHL
# Procedure: Human primary melanocytes (Cascade Biologics, now ThermoFisher Scientific) were grown in melanocytes growth medium (MGM) with human melanocyte growth supplement (both media components from ThermoFisher Scientific). Melanocytes were seeded at 1×10^4 cells/well in a 96 wells plate and cultures left undisturbed for 24 hours in a 5% CO2 humidifed incubator at 37° C. At 24 hrs post-seeding, cells were treated with GAP amino acids or additional test reagents above-described, alone or in combination, as described in examples below and left undisturbed for another 72 hours. Subsequently, cell viability was assessed and the cells were then lysed and progressed for determination of in situ tyrosinase activity. Cultures were rinsed twice with 1× phosphate-buffered saline and lysed with 40 uL of 0.5% TritonX 100 for 1 hr on an ice bed. In situ tyrosinase activity was visualized by addition of 60 μl of 50 mM potassium phosphate buffer (pH 6.8) containing 2 mM DOPA (3,4 dihydroxy phenylalanine) and 4 mM MBTH reagent (3-Methyl-2-Benzothiazolinone hydrazone hydrochloride) for 1 hour at 37° C. The reaction was stopped by the addition of 100 uL of ice-cold 10% tricholoracetic acid and then centrifuged at approximately 300 g for 10 minutes at 4° C. The soluble supernatant was separated from the pellet and the optical density read in a TECAN plate-reader (540 nm filter). The spectrophotometric optical density at 540 nm for untreated cells (media/vehicle) is considered as 100% tyrosinase activity. Tyrosinase activity is expressed after correction for cell numbers (activity/viability) and represented as % control.
structure (smiles),measurement,setting,value
"CCCCCCc1ccc(O)cc1O [HR, 4-hexylresorcinol]",inhibition at 10 µM,"[1]; Table 1A, HR 10 uM, read-out: Melanin synthesis inhibition, Mean of % Inhibition",35%
same,inhibition at 10 µM,"[1]; Table 1C, HR 10 μM, read-out: Melanin synthesis inhibition, Mean of % Inhibition",26%
same,inhibition at 10 µM,"[1]; Table 1D, HR 10 uM, read-out: Melanin synthesis inhibition, Mean of % Inhibition",32%
same,inhibition at 10 µM,"[1]; Table 1E, HR 10 uM, read-out: Melanin synthesis inhibition, Mean of % Inhibition",28%
same,inhibition at 10 µM,"[1]; Table 2, HR 10 uM, read-out: Melanin synthesis inhibition, Mean of % Inhibition",36%
same,inhibition at 10 µM,"[1]; Table 2B, HR 10 uM, read-out: Melanin Synthesis inhibition, Mean of % Inhibition",32%
same,inhibition at 10 µM,tyrosinase; HR 10 uM,67%
"NC(=O)c1ccncc1 [Isonicotinamide, isonicotinamide]",inhibition at 5000 µM,"[1]; Table 1D, Isonicotinamide 5 mM, alone or with GAP, read-out: Melanin synthesis inhibition, Mean of % Inhibition",4%
same,inhibition at 10000 µM,"[1]; Table 1D, Isonicotinamide 10 mM, alone or with GAP, read-out: Melanin synthesis inhibition, Mean of % Inhibition",20%
"CNC(=O)c1cccnc1 [N-methyl Nicotinamide, n-methyl-nicotinamide]",inhibition at 5000 µM,"[1]; Table 1C, N-methyl Nicotinamide 5 mM, alone or with GAP, read-out: Melanin synthesis inhibition, Mean of % Inhibition",0%
same,inhibition at 10000 µM,"[1]; Table 1C, N-methyl Nicotinamide 10 mM, alone or with GAP, read-out: Melanin synthesis inhibition, Mean of % Inhibition",7%
"O=C(O)c1cccnc1 [Niacin, niacin]",inhibition at 5000 µM,"[1]; Table 2B, Niacin 5 mM, alone or with GAP, read-out: Melanin Synthesis inhibition, Mean of % Inhibition",-7%
same,inhibition at 10000 µM,"[1]; Table 2B, Niacin 10 mM, alone or with GAP, read-out: Melanin Synthesis inhibition, Mean of % Inhibition",14%
"NC(=O)c1ccc[n+]([C@@H]2O[C@H](CO)[C@@H](O)[C@H]2O)c1 [Nicotinamide Riboside, nicotinamide riboside]",inhibition at 1 µM,"[1]; Table 1E, Nicotinamide Riboside 1 uM, alone or with GAP, read-out: Melanin synthesis inhibition, Mean of % Inhibition",4%
same,inhibition at 2.5 µM,"[1]; Table 1E, Nicotinamide Riboside 2.5 uM, alone or with GAP, read-out: Melanin synthesis inhibition, Mean of % Inhibition",9%
"NC(=O)c1cccnc1 [Nicotinamide, nicotinamide]",inhibition at 5000 µM,"[1]; Table 1A, Nicotinamide 5 mM, alone or with GAP, read-out: Melanin synthesis inhibition, Mean of % Inhibition",9%
same,inhibition at 10000 µM,"[1]; Table 1A, Nicotinamide 10 mM, alone or with GAP, read-out: Melanin synthesis inhibition, Mean of % Inhibition",10%
same,inhibition at 5000 µM,"tyrosinase; Nicotinamide 5 mM, alone or with GAP",16%
same,inhibition at 10000 µM,"tyrosinase; Nicotinamide 10 mM, alone or with GAP",24%
"NC(=O)c1ccccn1 [Picolinamide, picolinamide]",inhibition at 5000 µM,"[1]; Table 2, Picolinamide 5 mM, alone or with GAP, read-out: Melanin synthesis inhibition, Mean of % Inhibition",6%
same,inhibition at 10000 µM,"[1]; Table 2, Picolinamide 10 mM, alone or with GAP, read-out: Melanin synthesis inhibition, Mean of % Inhibition",32%
